According to patent US12054494B2, “Compound with anticancer activity” (KYOWA KIRIN CO., LTD., priority 2018, dated 2024):

These molecules were tested on SU-DHL-4 cells (assay: Inhibitory effect on cell viability (Cell Counting Kit-8)). Details: Homo sapiens, 72 hours culture with test compound, concentration showing 90% inhibition rate of cell viability.
Format: cell-based
Protocol: Inhibitiory Effect on Cell Viability
SU-DHL-4 cells (Code No. ACC 495, Deutsche Sammlung von Mikroorganismen and Zellkulturen GmbH) were cultured at 37° C. using a carbon dioxide incubator (95% air, 5% CO2) in RPMI1640 medium (Code No. 11875-093, Thermo Fisher Scientific) in which inactivated fetal bovine serum (FBS: Code No. 10099-148, Thermo Fisher Scientific) in an amount to give a final concentration of 10 vol % and penicillin/streptomycin solution (PS: Code No. 15140-122, Thermo Fisher Scientific) in an amount to give a final concentration of 1 vol % were added. The cells were passaged twice a week at a volume of 20-40 mL so as to maintain a cell concentration of 1×10^6 cells/mL or less.
The cultured SU-DHL-4 cells were seeded at 2000 cells/well in a transparent 384-well plate (Code No. 781182, Greiner bio-one). After seeding, the cells were precultured at 37° C. in a carbon dioxide gas incubator for 18 to 25 hours. Next, 1, 0.1 or 0.01 mmol/L DMSO solution of the test compound was prepared and a 9-step dilution series were prepared so that the concentration will be 200 times the final concentration in the RPMI1640 medium containing the above FBS and PS, and 1/200 volume of the dilution series were added to each well. At this time, the final concentration of DMSO was adjusted to be 0.1 vol %. After adding the test compound, the cells were cultured at 37° C. in a carbon dioxide gas incubator for 72 hours. Next, 0.020 mL of Cell Counting Kit-8 (Code No. CK04, DOJINDO) solution diluted 2-fold or 4-fold with phosphate buffered saline (PBS) was added to each well. Color reaction was carried out in a carbon dioxide gas incubator at 37° C. for 2 to 3 hours, and the absorbance at a wavelength of 450 nm was measured using SpectraMax 340PC (Molecular Devices). The inhibition rate of cell viability was calculated by the following formula, and the concentration of the test compound (IC90 value) showing a 90% inhibition rate of cell viability was calculated. Inhibition rate of cell viability (%)=100−(A−B)/(C−B)×100 • A: Absorbance of a well containing test compound • B: Absorbance of a well without addition of cells • C: Absorbance of a well without addition of test compound

IC90	SMILES
3.37 nM	CCC(=O)N1c2ccccc2[C@H](Nc2ccc(NC(=O)CCNC(=O)c3ccc(C4=N[C@@H](CC(=O)OC(C)(C)C)c5nnc(C)n5-c5sc(C)c(C)c54)cc3)cc2)C[C@@H]1C (relative stereo) [Compound 13i, tert-Butyl 2-((S)-2,3,9-trimethyl-4-(4-((3-((4-(((2S*,4R*)-2-methyl-1-propionyl-1,2,3,4-tetrahydroquinolin-4-yl)amino)phenyl)amino)-3-oxopropyl)carbamoyl)phenyl)-6H-thieno[3,2-f][1,2,4]triazolo[4,3-a][1,4]diazepin-6-yl)acetate]
1.17 nM	CCC(=O)N1c2ccccc2[C@H](Nc2ccc(NC(=O)CCCC(=O)Nc3ccc(C4=NCc5nnc(C)n5-c5sc(C)c(C)c54)cc3)cc2)C[C@@H]1C (relative stereo) [Compound 14t, N^1-(4-(((2S*,4R*)-2-Methyl-1-propionyl-1,2,3,4-tetrahydroquinolin-4-yl)amino)phenyl)-N^5-(4-(2,3,9-trimethyl-6H-thieno[3,2-f][1,2,4]triazolo[4,3-a][1,4]diazepin-4-yl)phenyl)glutaramide]
0.52 nM	CCC(=O)N1c2ccccc2[C@H](Nc2ccc(NC(=O)CNC(=O)C=C3CCC(N[C@@H]4C[C@H](C)N(C(=O)CC)c5ccccc54)CC3)cc2)C[C@@H]1C (relative stereo) [Compound 15j, 2-(4-(((2S*,4R*)-2-Methyl-1-propionyl-1,2,3,4-tetrahydroquinolin-4-yl)amino)cyclohexylidene)-N-(2-((4-(((2S,4R)-2-methyl-1-propionyl-1,2,3,4-tetrahydroquinolin-4-yl)amino)phenyl)amino)-2-oxoethyl)acetamide]
0.32 nM	CCC(=O)N1c2ccccc2[C@H](Nc2ccc(NC(=O)CNC(=O)C(F)=C3CCC(N[C@@H]4C[C@H](C)N(C(=O)CC)c5ccccc54)CC3)cc2)C[C@@H]1C (relative stereo) [Compound 15k, 2-Fluoro-2-(4-(((2S*,4R*)-2-methyl-1-propionyl-1,2,3,4-tetrahydroquinolin-4-yl)amino)cyclohexylidene)-N-(2-((4-(((2S,4R)-2-methyl-1-propionyl-1,2,3,4-tetrahydroquinolin-4-yl)amino)phenyl)amino)-2-oxoethyl)acetamide]

The remaining lines, values behind:

SMILES	IC90
CCC(=O)N1c2ccccc2[C@H](Nc2ccc(C(=O)N3CCC(C(=O)Nc4ccc(N[C@@H]5C[C@H](C)N(C(=O)CC)c6ccccc65)nc4)CC3)cc2)C[C@@H]1C (relative stereo) [Compound 10m, 1-(4-(((2S,4R)-2-Methyl-1-propionyl-1,2,3,4-tetrahydroquinolin-4-yl)amino)benzoyl)-N-(6-(((2S*,4R*)-2-methyl-1-propionyl-1,2,3,4-tetrahydroquinolin-4-yl)amino)pyridin-3-yl)piperidine-4-carboxamide]	30.9 nM
CCC(=O)N1c2ccccc2[C@H](Nc2ccc(C(=O)NCC#CC(=O)Nc3ccc(N[C@@H]4C[C@H](C)N(C(=O)CC)c5ccccc54)nc3)cc2)C[C@@H]1C (relative stereo) [Compound 10n, 4-(((2S,4R)-2-Methyl-1-propionyl-1,2,3,4-tetrahydroquinolin-4-yl)amino)-N-(4-((6-(((2S*,4R*)-2-methyl-1-propionyl-1,2,3,4-tetrahydroquinolin-4-yl)amino)pyridin-3-yl)amino)-4-oxobut-2-yn-1-yl)benzamide]	0.01 nM
CCC(=O)N1c2ccccc2[C@H](Nc2ccc(C(=O)NCCC(=O)Nc3ccc(N[C@@H]4C[C@H](C)N(C(=O)CC)c5ccccc54)nc3)cc2)C[C@@H]1C (relative stereo) [Compound 10o, 4-(((2S,4R)-2-Methyl-1-propionyl-1,2,3,4-tetrahydroquinolin-4-yl)amino)-N-(3-((6-(((2S*,4R*)-2-methyl-1-propionyl-1,2,3,4-tetrahydroquinolin-4-yl)amino)pyridin-3-yl)amino)-3-oxopropyl)benzamide]	1.48 nM
CCC(=O)N1c2ccccc2[C@H](NCC2CCN(C(=O)N3CC(C(=O)Nc4ccc(N[C@@H]5C[C@H](C)N(C(=O)CC)c6ccccc65)cc4)C3)CC2)C[C@@H]1C (relative stereo) [Compound 10p, 1-(4-((((2S*,4R*)-2-Methyl-1-propionyl-1,2,3,4-tetrahydroquinolin-4-yl)amino)methyl)piperidine-1-carbonyl)-N-(4-(((2S,4R)-2-methyl-1-propionyl-1,2,3,4-tetrahydroquinolin-4-yl)amino)phenyl)azetidine-3-carboxamide]	47.5 nM
CCC(=O)N1c2ccccc2[C@H](Nc2ccc(NC(=O)CCCC(=O)Nc3ccc(N[C@@H]4C[C@H](C)N(C(=O)CC)c5cc(CCCN)ccc54)cc3)cc2)C[C@@H]1C (relative stereo) [Compound 10s, N^1-(4-(((2S*,4R*)-7-(3-Aminopropyl)-2-methyl-1-propionyl-1,2,3,4-tetrahydroquinolin-4-yl)amino)phenyl)-N^5-(4-(((2S,4R)-2-methyl-1-propionyl-1,2,3,4-tetrahydroquinolin-4-yl)amino)phenyl)glutaramide]	21.7 nM
CCC(=O)N1c2ccccc2[C@H](Nc2ccc(NC(=O)CCCC(=O)Nc3ccc(N[C@@H]4C[C@H](C)N(C(=O)CC)c5cc(/C=C/CN)ccc54)cc3)cc2)C[C@@H]1C (relative stereo) [Compound 10t, N^1-(4-(((2S*,4R*)-7-((E)-3-Aminoprop-1-en-1-yl)-2-methyl-1-propionyl-1,2,3,4-tetrahydroquinolin-4-yl)amino)phenyl)-N^5-(4-(((2S,4R)-2-methyl-1-propionyl-1,2,3,4-tetrahydroquinolin-4-yl)amino)phenyl)glutaramide]	26.3 nM
CCC(=O)N1c2ccccc2[C@H](Nc2ccc(NC(=O)CCCC(=O)Nc3ccc(N[C@@H]4C[C@H](C)N(C(=O)CC)c5cc(C6=CCNCC6)ccc54)cc3)cc2)C[C@@H]1C (relative stereo) [Compound 10u, N^1-(4-(((2S,4R)-2-Methyl-1-propionyl-1,2,3,4-tetrahydroquinolin-4-yl)amino)phenyl)-N^5-(4-(((2S*,4R*)-2-methyl-1-propionyl-7-(1,2,3,6-tetrahydropyridin-4-yl)-1,2,3,4-tetrahydroquinolin-4-yl)amino)phenyl)glutaramide]	15.9 nM
CCC(=O)N1c2ccccc2[C@H](NCCCC2CCN(C(=O)Nc3ccc(N[C@@H]4C[C@H](C)N(C(=O)CC)c5ccccc54)cc3)CC2)C[C@@H]1C (relative stereo) [Compound 12d, N-(4-(((2S,4R)-2-Methyl-1-propionyl-1,2,3,4-tetrahydroquinolin-4-yl)amino)phenyl)-4-(3-(((2S*,4R*)-2-methyl-1-propionyl-1,2,3,4-tetrahydroquinolin-4-yl)amino)propyl)piperidine-1-carboxamide]	34.9 nM
CCC(=O)N1c2ccccc2[C@H](NCCOCCOCc2cn(-c3ccc(N[C@@H]4C[C@H](C)N(C(=O)CC)c5ccccc54)cc3)nn2)C[C@@H]1C (relative stereo) [Compound 12e, 1-((2S*,4R*)-2-Methyl-4-((2-(2-((1-(4-(((2S,4R)-2-methyl-1-propionyl-1,2,3,4-tetrahydroquinolin-4-yl)amino)phenyl)-1H-1,2,3-triazol-4-yl)methoxy)ethoxy)ethyl)amino)-3,4-dihydroquinolin-1(2H)-yl)propan-1-one]	73.7 nM
CCC(=O)N1c2ccccc2[C@H](NCCCCCCCCC(=O)Nc2ccc(N[C@@H]3C[C@H](C)N(C(=O)CC)c4ccccc43)cc2)C[C@@H]1C (relative stereo) [Compound 12g, 9-(((2S*,4R*)-2-Methyl-1-propionyl-1,2,3,4-tetrahydroquinolin-4-yl)amino)-N-(4-(((2S,4R)-2-methyl-1-propionyl-1,2,3,4-tetrahydroquinolin-4-yl)amino)phenyl)nonanamide]	31.1 nM
CCC(=O)N1c2ccccc2[C@H](NCCCCCCCC(=O)Nc2ccc(N[C@@H]3C[C@H](C)N(C(=O)CC)c4ccccc43)cc2)C[C@@H]1C (relative stereo) [Compound 12h, 8-(((2S*,4R*)-2-Methyl-1-propionyl-1,2,3,4-tetrahydroquinolin-4-yl)amino)-N-(4-(((2S,4R)-2-methyl-1-propionyl-1,2,3,4-tetrahydroquinolin-4-yl)amino)phenyl)octanamide]	3.92 nM
CCC(=O)N1c2ccccc2[C@H](NCCCC(=O)NCCn2cc(-c3ccc(N[C@@H]4C[C@H](C)N(C(=O)CC)c5ccccc54)cc3)cn2)C[C@@H]1C (relative stereo) [Compound 12i, 4-(((2S*,4R*)-2-Methyl-1-propionyl-1,2,3,4-tetrahydroquinolin-4-yl)amino)-N-(2-(4-(4-(((2S,4R)-2-methyl-1-propionyl-1,2,3,4-tetrahydroquinolin-4-yl)amino)phenyl)-1H-pyrazol-1-yl)ethyl)butanamide]	3.68 nM
